In patent publication US8288435B2, “2-aza-bicyclo[3.1.0]hexane derivatives as orexin receptor antagonists” (Actelion Pharmaceuticals Ltd., priority 2006, dated 2012):

Tests used:
human orexin-1 receptor = target: T1, human orexin-1 receptor (Homo sapiens, UniProt O43613); assay: Intracellular calcium measurements (FLIPR), orexin receptor antagonistic activity, OX1; assay type: cell-based; conditions: CHO cells expressing the human orexin-1 receptor, 10 nM orexin-A as agonist
T1 construct: expressed in transfected cells; host or cells: CHO (Chinese hamster ovary) cells, G418 selection
T1 sequence (O43613 1-425): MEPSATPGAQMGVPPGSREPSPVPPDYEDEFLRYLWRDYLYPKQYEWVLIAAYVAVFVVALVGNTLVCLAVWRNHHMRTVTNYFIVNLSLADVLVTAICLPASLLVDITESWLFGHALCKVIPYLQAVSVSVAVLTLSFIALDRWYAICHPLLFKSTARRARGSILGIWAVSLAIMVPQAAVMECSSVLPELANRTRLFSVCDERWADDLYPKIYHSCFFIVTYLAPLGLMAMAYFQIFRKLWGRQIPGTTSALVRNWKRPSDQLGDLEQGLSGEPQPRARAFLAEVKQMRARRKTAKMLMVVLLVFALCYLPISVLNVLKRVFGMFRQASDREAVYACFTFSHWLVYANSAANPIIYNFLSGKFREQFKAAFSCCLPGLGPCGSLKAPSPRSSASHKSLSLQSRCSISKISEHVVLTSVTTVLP
Method: (§1) The orexin receptor antagonistic activity of the compounds of formula (I) is determined in accordance with the following experimental method.
(§2) Intracellular Calcium Measurements:
(§3) Chinese hamster ovary (CHO) cells expressing the human orexin-1 receptor and the human orexin-2 receptor, respectively, are grown in culture medium (Ham F-12 with L-Glutamine) containing 300 μg/ml G418, 100 U/ml penicillin, 100 μg/ml streptomycin and 10% inactivated fetal calf serum (FCS). The cells are seeded at 80′000 cells/well into 96-well black clear bottom sterile plates (Costar) which have been precoated with 1% gelatine in Hanks' Balanced Salt Solution (HBSS). All reagents are from Gibco BRL. The seeded plates are incubated overnight at 37° C. in 5% CO2.
(§4) Human orexin-A as an agonist is prepared as 1 mM stock solution in MeOH:water (1:1), diluted in HBSS containing 0.1% bovine serum albumin (BSA) and 2 mM HEPES for use in the assay at a final concentration of 10 nM.
(§5) Antagonists are prepared as 10 mM stock solution in DMSO, then diluted in 96-well plates, first in DMSO, then in HBSS containing 0.1% bovine serum albumin (BSA) and 2 mM HEPES.
(§6) On the day of the assay, 100 μl of loading medium (HBSS containing 1% FCS, 2 mM HEPES, 5 mM probenecid (Sigma) and 3 μM of the fluorescent calcium indicator fluo-3 AM (1 mM stock solution in DMSO with 10% pluronic acid) (Molecular Probes) is added to each well.
(§7) The 96-well plates are incubated for 60 min at 37° C. in 5% CO2. The loading solution is then aspirated and cells are washed 3 times with 200 μl HBSS containing 2.5 mM probenecid, 0.1% BSA, 2 mM HEPES. 100 μl of that same buffer is left in each well.
(§8) Within the Fluorescent Imaging Plate Reader (FLIPR, Molecular Devices), antagonists are added to the plate in a volume of 50 μl, incubated for 20 min and finally 100 μl of agonist is added. Fluorescence is measured for each well at 1 second intervals, and the height of each fluorescence peak is compared to the height of the fluorescence peak induced by 10 nM orexin-A with buffer in place of antagonist. For each antagonist, IC50 value (the concentration of compound needed to inhibit 50% of the agonistic response) is determined.

human orexin-2 receptor = target: T2, human orexin-2 receptor (Homo sapiens, UniProt O43614); assay: Intracellular calcium measurements (FLIPR), orexin receptor antagonistic activity, OX2; assay type: cell-based; conditions: CHO cells expressing the human orexin-2 receptor, 10 nM orexin-A as agonist
T2 construct: expressed in transfected cells; host or cells: CHO (Chinese hamster ovary) cells, G418 selection
T2 sequence (O43614 1-444): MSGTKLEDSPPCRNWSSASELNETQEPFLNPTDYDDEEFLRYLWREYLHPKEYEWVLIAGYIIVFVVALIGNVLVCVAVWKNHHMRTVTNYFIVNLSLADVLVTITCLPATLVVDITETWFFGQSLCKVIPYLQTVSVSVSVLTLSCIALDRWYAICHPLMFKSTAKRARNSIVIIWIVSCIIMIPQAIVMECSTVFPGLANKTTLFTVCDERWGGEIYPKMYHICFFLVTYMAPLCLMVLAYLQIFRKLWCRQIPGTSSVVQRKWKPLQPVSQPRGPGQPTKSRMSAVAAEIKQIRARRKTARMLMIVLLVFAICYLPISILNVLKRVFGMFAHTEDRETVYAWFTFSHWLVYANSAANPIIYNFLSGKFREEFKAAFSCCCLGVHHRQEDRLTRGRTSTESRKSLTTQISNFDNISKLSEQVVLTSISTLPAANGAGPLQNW
Method: as §1, §2, §3, §4, §5, §6, §7, §8

SMILES | IC50 (human orexin-1 receptor) | IC50 (human orexin-2 receptor)
COc1ccc(C(=O)NC[C@@H]2C[C@@H]3C[C@@H]3N2C(=O)c2nc(C)sc2-c2cccc(C)c2)cc1OC [Example 123, 3,4-Dimethoxy-N-[(1S,3S,5S)-2-(2-methyl-5-m-tolyl-thiazole-4-carbonyl)-2-aza-bicyclo[3.1.0]hex-3-ylmethyl]-benzamide] | 1.98 µM | 0.074 µM
Cc1cccc(-c2sc(C)nc2C(=O)N2[C@H](CNC(=O)c3cccc(C(F)(F)F)c3)C[C@@H]3C[C@@H]32)c1 [Example 101, N-[(1S,3S,5S)-2-(2-Methyl-5-m-tolyl-thiazole-4-carbonyl)-2-aza-bicyclo[3.1.0]hex-3-ylmethyl]-3-trifluoromethyl-benzamide] | 0.042 µM | 0.057 µM
CCn1cc(C(=O)NC[C@@H]2C[C@@H]3C[C@@H]3N2C(=O)c2nc(C)sc2-c2cccc(C)c2)c(C)n1 [Example 99, 1-Ethyl-3-methyl-1H-pyrazole-4-carboxylic acid [(1S,3S,5S)-2-(2-methyl-5-m-tolyl-thiazole-4-carbonyl)-2-aza-bicyclo[3.1.0]hex-3-ylmethyl]-amide] | 0.042 µM | 0.015 µM
Cc1cccc(-c2sc(N)nc2C(=O)N2[C@H](CNC(=O)c3c(C)noc3C)C[C@@H]3C[C@@H]32)c1 [Example 33, 3,5-dimethyl-isoxazole-4-carboxylic acid [(1S,3S,5S)-2-(2-amino-5-m-tolyl-thiazole-4-carbonyl)-2-aza-bicyclo[3.1.0]hex-3-ylmethyl]-amide] | 0.129 µM | 0.094 µM
Cc1cccc(-c2sc(C)nc2C(=O)N2[C@H](CNC(=O)c3c(C)nc4sccn34)C[C@@H]3C[C@@H]32)c1 [Example 11, 6-methyl-imidazo[2,1-b]thiazole-5-carboxylic acid [(1S,3S,5S)-2-(2-methyl-5-m-tolyl-thiazole-4-carbonyl)-2-aza-bicyclo[3.1.0]hex-3-ylmethyl]-amide] | 0.007 µM | 0.024 µM

Other lines, results leading:

IC50 (human orexin-1 receptor) | IC50 (human orexin-2 receptor) | SMILES
0.062 µM | 0.057 µM | Cc1cccc(-c2sc(N)nc2C(=O)N2[C@H](CNC(=O)c3cccc(Br)c3)C[C@@H]3C[C@@H]32)c1 [Example 163, N-[(1S,3S,5S)-2-(2-Amino-5-m-tolyl-thiazole-4-carbonyl)-2-aza-bicyclo[3.1.0]hex-3-ylmethyl]-3-bromo-benzamide]
0.088 µM | 0.452 µM | O=C(NC[C@@H]1C[C@@H]2C[C@@H]2N1C(=O)c1ncsc1-c1cccc(Cl)c1)c1cccc2cccnc12 [Example 235, Quinoline-8-carboxylic acid {(1S,3S,5S)-2-[5-(3-chloro-phenyl)-thiazole-4-carbonyl]-2-aza-bicyclo[3.1.0]hex-3-ylmethyl}-amide]
0.131 µM | 0.068 µM | O=C(c1nc(C2CC2)sc1-c1ccccc1)N1[C@H](CNc2ncc(Br)cn2)C[C@@H]2C[C@@H]21 [Example 265, {(1S,3S,5S)-3-[(5-Bromo-pyrimidin-2-ylamino)-methyl]-2-aza-bicyclo[3.1.0]hex-2-yl}-(2-cyclopropyl-5-phenyl-thiazol-4-yl)-methanone]
0.11 µM | 0.098 µM | Cc1cccc(-c2sc(C)nc2C(=O)N2[C@H](CNc3nccc(C(F)(F)F)n3)C[C@@H]3C[C@@H]32)c1 [Example 274, (2-Methyl-5-m-tolyl-thiazol-4-yl)-{(1S,3S,5S)-3-[(4-trifluoromethyl-pyrimidin-2-ylamino)-methyl]-2-aza-bicyclo[3.1.0]hex-2-yl}-methanone]
